Measurements: patent US10130590B2, “Methods of treating cancer with atovaquone-related compounds” (DANA-FARBER CANCER INSTITUTE, INC., priority 2013, dated 2018)

How the values were obtained:
U266 cells = assay: Cell viability (Cell Titer Glo), U266; format: cell-based, human; details: 72 hours
Procedure: Western blotting was performed as previously described (Battle T E, Arbiser J, & Frank D A (2005) The natural product honokiol induces caspase dependent apoptosis in B-cell chronic lymphocytic leukemia (B-CLL) cells. Blood 106(2):690-697). Antibodies to phospho-MAPK (9101), total MAPK (9102), phospho-Y705 STAT3 (9131), phospho-S6 (2215), total S6 (2217), phospho-4E-BP1 (9451), total 4E-BP1 (9644), total RSK (9355), phospho-S6K (9234, 85 used at 1:5000), total S6K (2708), phospho-eIF2α (9721, used at 1:1000), total eIF2α (5324), ATF4 (11815, used at 1:1000), PDGFRβ (3169), IGF1Rβ (9750), EGFR (2232), and HER2 (2242) were from Cell Signaling Technology. Phospho-RSK antibody was from R&D (AF889). Antibodies to total STAT3 (sc-482) and gp130 (sc-656, used at 1:1000) were from Santa Cruz Biotechnology. Phospho-S727 STAT3 antibody was described previously (229). REDD1 antibody was from Proteintech (10638-1-AP, used at 1:1000). Antibody recognizing full-length and cleaved ATF6 was from Abcam (ab122897, used at 1:1000). Antibodies to tubulin (T5168) and beta actin (A5316) were from Sigma. All antibodies were used at 1:10000 dilution for western blot unless otherwise noted. […] Cell viability was measured as ATP-dependent luminescence by Cell Titer Glo (Promega). […]

gp130 mRNA = gp130 mRNA expression (qRT-PCR); format: cell-based; details: MEF, MDA-MB, SKBR3, U266; 25 μM, 12 hours
Procedure: Total RNA was reverse transcribed using random hexamers and assayed by qRT-PCR as previously described (see, Grivennikov S I, Greten F R, & Karin M (2010) Immunity, inflammation, and cancer. Cell 140(6):883-899).
MEF, MDA-MB-468, and SKBR3 cells were treated with atovaquone (25 μM) for 6 or 12 hours, then analyzed by Western blot for expression of gp130 and various other receptors. […] In contrast, levels of other receptors—such as PDGFR-β, EGFR, HER2, and IGF1R-β—were not affected, again indicating a specific effect on gp130. […] In summary, atovaquone rapidly induces specific loss of cell-surface gp130, while total gp130 declines secondarily due to protein degradation.

mTOR pathway = assay: Western blot of S6 phosphorylation in TSC2 or REDD1 knockout MEFs; format: cell-based, mouse; details: 25 μM, 2.5 hours
Procedure: Mouse embryonic fibroblasts (MEFs) were cultured in DMEM+10% FBS. TSC2-null (see, Zhang et al. J Clin Invest. 2003; 112(8):1223-1233) and REDD1-null (see, Sofer et al. Mol. Cell. Biol. July 2005 vol. 25 no. 14 5834-5845) MEFs, along with MEFs from the littermate controls, were kind gifts from Dr. John Blenis and Dr. Leif Ellisen, respectively. HEL (see, Iwama et al. Mol. Cell. Biol. June 1999 vol. 19 no. 6 3940-3950) was a kind gift of Dr. Daniel G. Tenen and grown in RPMI-1640+10% FBS. OCI-AML2 and OCI-AML3 (see, Grunberger et al. Blood Dec. 1, 2003 vol. 102 no. 12 4153-4158), and MOLM-13 (German Collection of Microorganisms and Cell Cultures (DSMZ, Braunschweig, Germany)) were kind gifts of Dr. James D. Griffin and grown in RPMI-1640+10% FBS. MM.1S (ATCC) was a kind gift of Dr. Kenneth C. Anderson and grown in RPMI-1640+10% FBS. SET2 (see, Koppikar et al. Nature 489, 155-159 (6 Sep. 2012)) was a kind gift of Dr. Ross L. Levine and grown in RPMI-1640+10% FBS. HL60 (ATCC) was a kind gift of Dr. James D. Griffin and grown in RPMI-1640+10% FBS. […] Molecular Pharmacology 78(5):903-908; and Walker S R, et al. (2009) Reciprocal effects of STAT5 and STAT3 in breast cancer. Molecular Cancer Research: MCR 7(6):966-976). Peripheral blood mononuclear cells (PBMCs) were isolated from healthy donors by Ficoll density gradient centrifugation and maintained in RPMI-1640+10% FBS. […]

O=C1C(O)=C([C@H]2CC[C@H](c3ccc(Cl)cc3)CC2)C(=O)c2ccccc21 [atovaquone, trans-2-[4-(4-chlorophenyl)cyclohexyl]-3-hydroxy-1,4-naphthalenedione]
viability of U266 cells (U266 cells): killed
gp130 mRNA expression (gp130 mRNA): not significantly changed
S6 phosphorylation in MEFs with knockout of TSC2 or REDD1 (mTOR pathway): no effect on S6 phosphorylation
